ChEMBL document CHEMBL1255213, “Bottromycin derivatives: efficient chemical modifications of the ester moiety and evaluation of anti-MRSA and anti-VRE activities” (2010)
Converted amounts (≈) assume the structure as drawn.

What was measured:
Assay type in all cases: functional
[1] = tested on: Enterococcus faecium; test: Antimicrobial activity against Enterococcus faecium NCTC 12203 by standard serial-dilution technique
[2] = tested on: Staphylococcus aureus; test: Antimicrobial activity against Staphylococcus aureus FDA209P by standard serial-dilution technique
[3] = tested on: Staphylococcus aureus; test: Antimicrobial activity against methicillin-resistant Staphylococcus aureus 92-1191 by standard serial-dilution technique
[4] = tested on: Staphylococcus aureus; test: Antimicrobial activity against Staphylococcus aureus Smith by standard serial-dilution technique
[5] = tested on: Enterococcus faecium; test: Antimicrobial activity against Enterococcus faecium NCTC 12201 by standard serial-dilution technique
[6] = tested on: Staphylococcus aureus; test: Antimicrobial activity against methicillin-resistant Staphylococcus aureus HH1 by standard serial-dilution technique
[7] = tested on: Staphylococcus aureus; test: Antimicrobial activity against methicillin-resistant Staphylococcus aureus assessed as rate of residual activity; set-up: concentration or dose not given beside the values

Structure (SMILES) | MIC [1] | MIC [2] | MIC [3] | MIC [4] | MIC [5] | MIC [6] | Activity [7]
CC(C)[C@@H]1NC(=O)[C@@H]2[C@H](C)CCN2C(=O)CN/C(=N\[C@H](C(=O)N[C@H](C(=O)N[C@H](CC(=O)N2CCOCC2)c2nccs2)[C@@H](C)c2ccccc2)C(C)(C)C)[C@H](C(C)(C)C)NC1=O | 4 µg/mL (≈ 4.56 µM) | 16 µg/mL (≈ 18.2 µM) | 32 µg/mL (≈ 36.4 µM) | 8 µg/mL (≈ 9.11 µM) | 16 µg/mL (≈ 18.2 µM) | 16 µg/mL (≈ 18.2 µM) | 100%
COC(=O)C[C@@H](NC(=O)[C@@H](NC(=O)[C@@H](/N=C1\NCC(=O)N2CC[C@@H](C)[C@H]2C(=O)N[C@@H](C(C)C)C(=O)N[C@H]1C(C)(C)C)C(C)(C)C)[C@@H](C)c1ccccc1)c1nccs1 | 0.5 µg/mL (≈ 0.607 µM) | 1 µg/mL (≈ 1.21 µM) | 2 µg/mL (≈ 2.43 µM) | 1 µg/mL (≈ 1.21 µM) | 1 µg/mL (≈ 1.21 µM) | 1 µg/mL (≈ 1.21 µM) | 0%
CC(C)[C@@H]1NC(=O)[C@@H]2[C@H](C)CCN2C(=O)CN/C(=N\[C@H](C(=O)N[C@H](C(=O)N[C@H](CC(=O)O)c2nccs2)[C@@H](C)c2ccccc2)C(C)(C)C)[C@H](C(C)(C)C)NC1=O | 32 µg/mL (≈ 39.6 µM) | 64 µg/mL (≈ 79.1 µM) | 128 µg/mL (≈ 158 µM) | 64 µg/mL (≈ 79.1 µM) | 128 µg/mL (≈ 158 µM) | 64 µg/mL (≈ 79.1 µM) | –
CC(C)[C@@H]1NC(=O)[C@@H]2[C@H](C)CCN2C(=O)CN/C(=N\[C@H](C(=O)N[C@H](C(=O)N[C@H](CC(=O)NN)c2nccs2)[C@@H](C)c2ccccc2)C(C)(C)C)[C@H](C(C)(C)C)NC1=O | 4 µg/mL (≈ 4.86 µM) | 16 µg/mL (≈ 19.4 µM) | 32 µg/mL (≈ 38.9 µM) | 16 µg/mL (≈ 19.4 µM) | 8 µg/mL (≈ 9.72 µM) | 16 µg/mL (≈ 19.4 µM) | 86%
CC(C)[C@@H]1NC(=O)[C@@H]2[C@H](C)CCN2C(=O)CN/C(=N\[C@H](C(=O)N[C@H](C(=O)N[C@H](CC(=O)NCc2ccccc2)c2nccs2)[C@@H](C)c2ccccc2)C(C)(C)C)[C@H](C(C)(C)C)NC1=O | 2 µg/mL (≈ 2.23 µM) | 8 µg/mL (≈ 8.91 µM) | 8 µg/mL (≈ 8.91 µM) | 8 µg/mL (≈ 8.91 µM) | 8 µg/mL (≈ 8.91 µM) | 8 µg/mL (≈ 8.91 µM) | 71%
C#CCNC(=O)C[C@@H](NC(=O)[C@@H](NC(=O)[C@@H](/N=C1\NCC(=O)N2CC[C@@H](C)[C@H]2C(=O)N[C@@H](C(C)C)C(=O)N[C@H]1C(C)(C)C)C(C)(C)C)[C@@H](C)c1ccccc1)c1nccs1 | 2 µg/mL (≈ 2.36 µM) | 8 µg/mL (≈ 9.46 µM) | 16 µg/mL (≈ 18.9 µM) | 8 µg/mL (≈ 9.46 µM) | 4 µg/mL (≈ 4.73 µM) | 8 µg/mL (≈ 9.46 µM) | 100%
CC(C)[C@@H]1NC(=O)[C@@H]2[C@H](C)CCN2C(=O)CN/C(=N\[C@H](C(=O)N[C@H](C(=O)N[C@H](CC(=O)N2CCSC2)c2nccs2)[C@@H](C)c2ccccc2)C(C)(C)C)[C@H](C(C)(C)C)NC1=O | 2 µg/mL (≈ 2.27 µM) | 4 µg/mL (≈ 4.54 µM) | 8 µg/mL (≈ 9.09 µM) | 4 µg/mL (≈ 4.54 µM) | 8 µg/mL (≈ 9.09 µM) | 8 µg/mL (≈ 9.09 µM) | 100%
CC(C)[C@@H]1NC(=O)[C@@H]2[C@H](C)CCN2C(=O)CN/C(=N\[C@H](C(=O)N[C@H](C(=O)N[C@H](CC(=O)N2CCSCC2)c2nccs2)[C@@H](C)c2ccccc2)C(C)(C)C)[C@H](C(C)(C)C)NC1=O | 4 µg/mL (≈ 4.47 µM) | 8 µg/mL (≈ 8.95 µM) | 8 µg/mL (≈ 8.95 µM) | 4 µg/mL (≈ 4.47 µM) | 4 µg/mL (≈ 4.47 µM) | 8 µg/mL (≈ 8.95 µM) | 100%
CC(C)[C@@H]1NC(=O)[C@@H]2[C@H](C)CCN2C(=O)CN/C(=N\[C@H](C(=O)N[C@H](C(=O)N[C@H](CC(=O)N2CCN(C(=O)OC(C)(C)C)CC2)c2nccs2)[C@@H](C)c2ccccc2)C(C)(C)C)[C@H](C(C)(C)C)NC1=O | 4 µg/mL (≈ 4.09 µM) | 8 µg/mL (≈ 8.19 µM) | 8 µg/mL (≈ 8.19 µM) | 4 µg/mL (≈ 4.09 µM) | 8 µg/mL (≈ 8.19 µM) | 8 µg/mL (≈ 8.19 µM) | 42%
CC(C)[C@@H]1NC(=O)[C@@H]2[C@H](C)CCN2C(=O)CN/C(=N\[C@H](C(=O)N[C@H](C(=O)N[C@H](CC(=O)N2CCNCC2)c2nccs2)[C@@H](C)c2ccccc2)C(C)(C)C)[C@H](C(C)(C)C)NC1=O | 32 µg/mL (≈ 36.5 µM) | 64 µg/mL (≈ 73 µM) | 128 µg/mL (≈ 146 µM) | 32 µg/mL (≈ 36.5 µM) | 32 µg/mL (≈ 36.5 µM) | 64 µg/mL (≈ 73 µM) | –
C#CCN1CCN(C(=O)C[C@@H](NC(=O)[C@@H](NC(=O)[C@@H](/N=C2\NCC(=O)N3CC[C@@H](C)[C@H]3C(=O)N[C@@H](C(C)C)C(=O)N[C@H]2C(C)(C)C)C(C)(C)C)[C@@H](C)c2ccccc2)c2nccs2)CC1 | 16 µg/mL (≈ 17.5 µM) | 16 µg/mL (≈ 17.5 µM) | 32 µg/mL (≈ 35 µM) | 16 µg/mL (≈ 17.5 µM) | 16 µg/mL (≈ 17.5 µM) | 16 µg/mL (≈ 17.5 µM) | 67%
CC(C)[C@@H]1NC(=O)[C@@H]2[C@H](C)CCN2C(=O)CN/C(=N\[C@H](C(=O)N[C@H](C(=O)N[C@H](CC(=O)N2CCN(Cc3ccccc3)CC2)c2nccs2)[C@@H](C)c2ccccc2)C(C)(C)C)[C@H](C(C)(C)C)NC1=O | 4 µg/mL (≈ 4.14 µM) | 4 µg/mL (≈ 4.14 µM) | 4 µg/mL (≈ 4.14 µM) | 4 µg/mL (≈ 4.14 µM) | 4 µg/mL (≈ 4.14 µM) | 4 µg/mL (≈ 4.14 µM) | 84%
CC(C)[C@@H]1NC(=O)[C@@H]2[C@H](C)CCN2C(=O)CN/C(=N\[C@H](C(=O)N[C@H](C(=O)N[C@H](CNC(=O)N2CCSC2)c2nccs2)[C@@H](C)c2ccccc2)C(C)(C)C)[C@H](C(C)(C)C)NC1=O | 2 µg/mL (≈ 2.23 µM) | 4 µg/mL (≈ 4.47 µM) | 4 µg/mL (≈ 4.47 µM) | 4 µg/mL (≈ 4.47 µM) | 4 µg/mL (≈ 4.47 µM) | 4 µg/mL (≈ 4.47 µM) | 100%
CC(C)[C@@H]1NC(=O)[C@@H]2[C@H](C)CCN2C(=O)CN/C(=N\[C@H](C(=O)N[C@H](C(=O)N[C@H](CNC(=O)NCc2ccccc2)c2nccs2)[C@@H](C)c2ccccc2)C(C)(C)C)[C@H](C(C)(C)C)NC1=O | 4 µg/mL (≈ 4.38 µM) | 8 µg/mL (≈ 8.76 µM) | 16 µg/mL (≈ 17.5 µM) | 16 µg/mL (≈ 17.5 µM) | 8 µg/mL (≈ 8.76 µM) | 16 µg/mL (≈ 17.5 µM) | 100%
CCSC(=O)C[C@@H](NC(=O)[C@@H](NC(=O)[C@@H](/N=C1\NCC(=O)N2CC[C@@H](C)[C@H]2C(=O)N[C@@H](C(C)C)C(=O)N[C@H]1C(C)(C)C)C(C)(C)C)[C@@H](C)c1ccccc1)c1nccs1 | ≤ 0.25 µg/mL | ≤ 0.25 µg/mL | 0.5 µg/mL (≈ 0.586 µM) | 0.5 µg/mL (≈ 0.586 µM) | ≤ 0.25 µg/mL | ≤ 0.25 µg/mL | 0%
CCCSC(=O)C[C@@H](NC(=O)[C@@H](NC(=O)[C@@H](/N=C1\NCC(=O)N2CC[C@@H](C)[C@H]2C(=O)N[C@@H](C(C)C)C(=O)N[C@H]1C(C)(C)C)C(C)(C)C)[C@@H](C)c1ccccc1)c1nccs1 | ≤ 0.25 µg/mL | 0.5 µg/mL (≈ 0.577 µM) | 1 µg/mL (≈ 1.15 µM) | 0.5 µg/mL (≈ 0.577 µM) | 1 µg/mL (≈ 1.15 µM) | ≤ 0.25 µg/mL | 0%
CC(C)SC(=O)C[C@@H](NC(=O)[C@@H](NC(=O)[C@@H](/N=C1\NCC(=O)N2CC[C@@H](C)[C@H]2C(=O)N[C@@H](C(C)C)C(=O)N[C@H]1C(C)(C)C)C(C)(C)C)[C@@H](C)c1ccccc1)c1nccs1 | ≤ 0.25 µg/mL | 0.5 µg/mL (≈ 0.577 µM) | 1 µg/mL (≈ 1.15 µM) | 0.5 µg/mL (≈ 0.577 µM) | 1 µg/mL (≈ 1.15 µM) | 0.5 µg/mL (≈ 0.577 µM) | 0%
CCCC(=O)C[C@@H](NC(=O)[C@@H](NC(=O)[C@@H](/N=C1\NCC(=O)N2CC[C@@H](C)[C@H]2C(=O)N[C@@H](C(C)C)C(=O)N[C@H]1C(C)(C)C)C(C)(C)C)[C@@H](C)c1ccccc1)c1nccs1 | 0.5 µg/mL (≈ 0.599 µM) | 1 µg/mL (≈ 1.2 µM) | 2 µg/mL (≈ 2.39 µM) | 1 µg/mL (≈ 1.2 µM) | 2 µg/mL (≈ 2.39 µM) | 1 µg/mL (≈ 1.2 µM) | 100%
CCC(=O)C[C@@H](NC(=O)[C@@H](NC(=O)[C@@H](/N=C1\NCC(=O)N2CC[C@@H](C)[C@H]2C(=O)N[C@@H](C(C)C)C(=O)N[C@H]1C(C)(C)C)C(C)(C)C)[C@@H](C)c1ccccc1)c1nccs1 | 1 µg/mL (≈ 1.22 µM) | 1 µg/mL (≈ 1.22 µM) | 2 µg/mL (≈ 2.44 µM) | 1 µg/mL (≈ 1.22 µM) | 2 µg/mL (≈ 2.44 µM) | 2 µg/mL (≈ 2.44 µM) | 100%
CC(=O)NC[C@H]1CN(c2ccc(N3CCOCC3)c(F)c2)C(=O)O1 [LINEZOLID] | 2 µg/mL (≈ 5.93 µM) | – | – | – | 2 µg/mL (≈ 5.93 µM) | – | –
CN[C@H](CC(C)C)C(=O)N[C@H]1C(=O)N[C@@H](CC(N)=O)C(=O)N[C@H]2C(=O)N[C@H]3C(=O)N[C@H](C(=O)N[C@H](C(=O)O)c4cc(O)cc(O)c4-c4cc3ccc4O)[C@H](O)c3ccc(c(Cl)c3)Oc3cc2cc(c3O[C@@H]2O[C@H](CO)[C@@H](O)[C@H](O)[C@H]2O[C@H]2C[C@](C)(N)[C@H](O)[C@H](C)O2)Oc2ccc(cc2Cl)[C@H]1O [VANCOMYCIN] | > 128 µg/mL | – | – | – | > 128 µg/mL | – | –
